Legend:
Type in all cases: cell-based
[1] = target: human GPR17 long isoform V96M (hGPR17L-V96M) (Homo sapiens, UniProt Q13304, V96M); experiment: calcium flux in GLUTag cells expressing hGPR17L-V96M
mouse GPR17 (mGPR17) = mouse GPR17 (mGPR17) (Mus musculus, UniProt Q6NS65); experiment: calcium flux in GLUTag cells expressing mGPR17
[2] = target: human GPR17 long isoform (hGPR17L) (Homo sapiens, UniProt Q13304)
Sequence of human GPR17 long isoform (hGPR17L) (Q13304 whole entry, canonical isoform): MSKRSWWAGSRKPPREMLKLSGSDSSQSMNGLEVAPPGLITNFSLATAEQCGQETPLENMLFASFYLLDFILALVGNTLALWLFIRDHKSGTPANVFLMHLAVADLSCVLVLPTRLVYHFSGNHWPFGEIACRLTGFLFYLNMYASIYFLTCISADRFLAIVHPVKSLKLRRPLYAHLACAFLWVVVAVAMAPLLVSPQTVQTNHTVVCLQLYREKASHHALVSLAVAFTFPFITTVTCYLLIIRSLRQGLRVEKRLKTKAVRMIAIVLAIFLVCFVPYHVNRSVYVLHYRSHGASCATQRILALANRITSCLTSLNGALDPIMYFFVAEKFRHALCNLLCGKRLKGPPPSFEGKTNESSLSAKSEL

Sequence of mouse GPR17 (mGPR17) (Q6NS65 whole entry, canonical isoform): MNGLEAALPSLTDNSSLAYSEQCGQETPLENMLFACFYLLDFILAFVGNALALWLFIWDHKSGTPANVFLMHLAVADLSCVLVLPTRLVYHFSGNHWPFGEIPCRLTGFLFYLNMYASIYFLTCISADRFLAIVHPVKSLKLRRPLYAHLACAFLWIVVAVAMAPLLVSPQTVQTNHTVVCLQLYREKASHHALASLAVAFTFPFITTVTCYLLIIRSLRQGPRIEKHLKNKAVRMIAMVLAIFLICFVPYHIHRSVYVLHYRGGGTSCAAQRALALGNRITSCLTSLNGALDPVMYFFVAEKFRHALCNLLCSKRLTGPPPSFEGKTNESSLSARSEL
Sequence of human GPR17 long isoform V96M (hGPR17L-V96M) (Q13304 whole entry V96M, canonical isoform): as the sequence (Q13304 whole entry, canonical isoform) above, with V96M counted along it

- EC50 [1]: 580 nM
- EC50 (mouse GPR17 (mGPR17)): 680 nM
- IC50 [2]: 29 nM
SMILES: O=C(O)CCc1c(C(=O)O)[nH]c2cc(Cl)cc(Cl)c12 [MDL29,951]
